Assay results reported in US8946437B2, “4-(methylaminophenoxy)pyrdin-3-yl-benzamide derivatives for treating cancer” (Otsuka Pharmaceutical Co., Ltd., priority 2010, dated 2015).
Structures can show the parent of a compound that is named as a salt.

Legend:
[1] = tested on: human hepatic cancer cells (HuH-7); assay: Antiproliferative effect on cancer cells (in vitro), sulforhodamine B method; assay type: cell-based; conditions: 120 h, HuH-7 cells, 5 days incubation with test compound, SRB staining, read-out: IC50 (50% inhibitory concentration), growth inhibition of HuH-7 cells
Description: Antiproliferative Effect on Cancer Cells (In Vitro)
Growth inhibition of human hepatic cancer cells (HuH-7) was determined by the sulforhodamine B method based on the method of Skehan P. et al. (J Natl Cancer Inst. 1990 Jul. 4; 82(13): 1107-12). In the study, HuH-7 cells were seeded on DMEM medium containing 10% fetal bovine serum in a 96-well microplate. After 24-hour incubation at 37° C. in the presence of 5% carbon dioxide, the test compound was added and the cells were incubated for another 5 days. After incubation, a trichloroacetic acid solution was added to yield the final concentration of 10% and the cells were left to stand at 4° C. for 1 hour to fix. Then, the cells were washed with water to remove the medium and trichloroacetic acid and dried in the air. The dried cells were stored at 4° C. until they were stained with sulforhodamine B. To each well, 1% acetic acid solution containing 0.4% sulforhodamine B was added and left to stand for 20 to 30 minutes at room temperature. After discarding the supernatant, each well was washed with 1% acetic acid solution, and 10 mM Tris(tris-(hydroxymethyl)aminomethane) solution was added while stirring to elute the dye taken into the cells. Then, the optical density was determined at the measurement wavelength of 492 nm and the reference wavelength of 690 nm, and the difference was calculated. The cell growth activity in each well was defined as the value determined by subtracting the OD in the control well not containing cells (the difference in absorbance between 492 nm and 690 nm) from that in the test well.
The 50% inhibitory concentration (IC50 (nM)) of the test compound was determined by comparing the cell growth activity in the well containing the test compound with that of the control not containing the test compound.

[2] = Metabolic stability test in hepatic microsome; assay type: in vitro ADME; conditions: liver microsomes, NADH/NADPH, 37° C., 0, 10 and 20 min, read-out: CLint (intrinsic clearance)
Description: Metabolic Stability Test in Hepatic Microsome
In this study, 222.5 μL of 0.22 mg/mL liver microsome was distributed to each tube, and 2.5 μL of 100 μM test compound was added thereto. Then, 22.5 μL of this mixture was divided to 500 μL of acetonitrile spiked IS as 0 min sample, and the residue was pre-incubated at 37° C. for 5 min. Reaction was started by the addition of 22.5 μL of 10 mM NADH/NADPH, and after 10 and 20 min, 25 μL of the reaction mixture was divided to 500 μL of acetonitrile spiked IS. The samples were centrifuged (5700 rpm, 4° C., 10 min), and the supernatants were analyzed by LC/MS/MS. The slope of the linear regression from log percentage remaining versus incubation time relationships (−ke) was calculated, and the intrinsic clearance (CLint) was calculated using the following equation.

[3] = Stability test of dissolved compounds under heat- and acid-stress condition; assay type: physicochemical; conditions: dissolved in water/acetonitrile/trifluoroacetic acid (500:500:1), stored at 70° C., Day 0, Day 1 and Day 3
Description: In order to estimate the stability of compounds without conducting a long-term stability test, the stability of the dissolved compounds was evaluated under a heat- and acid-stress condition.
About 0.005 g of test compound was dissolved in 50 mL of a mobile phase, and this solution was used as the sample solution. The solutions were put into a brown glass vial and stored at 70° C. during the test period. The test with 20 μL of each of the sample solution was conducted at the following sampling points as directed under the Liquid Chromatography according to the following conditions. The residual ratio of the test compound's peak area (%) in the total peak area detected in the solution was determined by the automatic integration method. Operating conditions were as follows. […] The residual ratio of the test compound's peak area (%) is calculated as follows. The peak area of the test compound/The total peak area detected in the solution×100.

SMILES | IC50 [1] [nM] | microsomal CLint at 1 µM [2] [µL/min/mg] | melting point | storage stability (residual ratio of the test compound's peak area) [3]
CNc1ccc(Oc2ccc(NC(=O)c3ccc(C(F)(F)F)cc3F)cn2)c(C)c1 [Example 9, 2-Fluoro-N-{6-[2-methyl-4-(methylamino)phenoxy]pyridin-3-yl}-4-(trifluoromethyl)benzamide] | 70.4 | < 200 |  | 
CNc1ccc(Oc2ccc(NC(=O)c3ccc(F)c(F)c3F)cn2)c(C)c1.Cl [Example 25, 2,3,4-Trifluoro-N-{6-[2-methyl-4-(methylamino)phenoxy]pyridin-3-yl}benzamide hydrochloride] | 485 | < 200 | 222.9 to 225.4 °C (dec.) | 
CNc1ccc(Oc2ccc(NC(=O)c3ccc(-c4ccccc4)cc3)cn2)cc1 [Example 11, N-{6-[4-(Methylamino)phenoxy]pyridin-3-yl}biphenyl-4-carboxamide] | 311 |  |  | 
CNc1ccc(Oc2ccc(NC(=O)c3ccc(-c4ccccc4)cc3)cn2)c(C)c1 [Example 7, N-{6-[2-Methyl-4-(methylamino)phenoxy]pyridin-3-yl}biphenyl-4-carboxamide] | 77.6 | < 200 |  | 
CNc1ccc(Oc2ccc(NC(=O)c3ccc(Oc4ccccc4)cc3)cn2)c(C)c1 [Example 6, N-{6-[2-Methyl-4-(methylamino)phenoxy]pyridin-3-yl}-4-phenoxybenzamide] | 78.5 | < 200 |  | 
CNc1ccc(Oc2ccc(NC(=O)c3ccc(-c4ccccc4)cc3)cn2)c(F)c1 [Example 2, N-{6-[2-Fluoro-4-(methylamino)phenoxy]pyridin-3-yl}biphenyl-4-carboxamide] | 108 | < 200 | 190 to 190.5 °C (dec.) | 
CNc1ccc(Oc2ccc(NC(=O)c3ccc(Oc4ccccc4)cc3)cn2)cc1 [Example 10, N-{6-[4-(Methylamino)phenoxy]pyridin-3-yl}-4-phenoxybenzamide] | 320 |  |  | 
CNc1ccc(Oc2ccc(NC(=O)c3ccc(C(F)(F)F)cc3F)cn2)c(F)c1 [Example 22, 2-Fluoro-N-{6-[2-fluoro-4-(methylamino)phenoxy]pyridin-3-yl}-4-(trifluoromethyl)benzamide hydrochloride] | 163 | < 200 |  | 
CNc1ccc(Oc2ccc(NC(=O)c3ccc(-c4ccccc4)cc3)cn2)c(OC)c1 [Example 14, N-{6-[2-Methoxy-4-(methylamino)phenoxy]pyridin-3-yl}biphenyl-4-carboxamide] | 248 | < 200 | 161.4 to 161.8 °C | 
CNc1ccc(Oc2ccc(NC(=O)c3ccc(C(F)(F)F)cc3)cn2)c(OC)c1.Cl [Example 27, N-{6-[2-Methoxy-4-(methylamino)phenoxy]pyridin-3-yl}-4-(trifluoromethyl)benzamide hydrochloride] | 304 | < 200 | 217.6 to 218.2 °C | 
CNc1ccc(Oc2ccc(NC(=O)c3ccc(C(F)(F)F)cc3)cn2)c(F)c1 [Example 3, N-{6-[2-Fluoro-4-(methylamino)phenoxy]pyridin-3-yl}-4-(trifluoromethyl)benzamide] | 155 | < 200 |  | 
CNc1ccc(Oc2ccc(NC(=O)c3ccc(C(F)(F)F)cc3)cn2)cc1.Cl [Example 30, N-{6-[4-(Methylamino)phenoxy]pyridin-3-yl}-4-(trifluoromethyl)benzamide hydrochloride] | 275 | < 200 |  | superior storage stability
CNc1ccc(Oc2ccc(NC(=O)c3ccc(C(F)(F)F)cc3)cn2)c(C)c1 [Example 24, N-{6-[2-methyl-4-(methylamino)phenoxy]pyridin-3-yl}-4-(trifluoromethyl)benzamide hydrochloride] | 72.3 | < 200 |  | 
CNc1ccc(Oc2ccc(NC(=O)c3ccc(Oc4ccccc4)cc3)cn2)c(F)c1 [Example 21, N-{6-[2-fluoro-4-(methylamino)phenoxy]pyridin-3-yl}-4-phenoxybenzamide hydrochloride] | 136 |  |  | 
CNc1ccc(Oc2ccc(NC(=O)c3ccc(C(F)(F)F)cc3F)cn2)cc1 [Example 31, 2-Fluoro-N-{6-[4-(methylamino)phenoxy]pyridin-3-yl}-4-(trifluoromethyl)benzamide hydrochloride] | 327 | < 200 |  | 
CNc1ccc(Oc2ccc(NC(=O)c3ccc(Oc4ccccc4)cc3)cn2)c(OC)c1.Cl [Example 26, N-{6-[2-Methoxy-4-(methylamino)phenoxy]pyridin-3-yl}-4-phenoxybenzamide hydrochloride] | 275 | < 200 | 202.2 to 202.3 °C | 
CNc1ccc(Oc2ccc(NC(=O)c3ccc(F)c(F)c3F)cn2)c(F)c1 [Example 23, 2,3,4-Trifluoro-N-{6-[2-fluoro-4-(methylamino)phenoxy]pyridin-3-yl}benzamide hydrochloride] | 753 |  |  | 
CNc1ccc(Oc2ccc(NC(=O)c3ccc(C(F)(F)F)cc3F)cn2)c(OC)c1.Cl [Example 28, 2-Fluoro-N-{6-[2-methoxy-4-(methylamino)phenoxy]pyridin-3-yl}-4-(trifluoromethyl)benzamide hydrochloride] | 293 | < 200 | 197 to 198.1 °C | 
CNc1ccc(Oc2ccc(NC(=O)c3ccc(F)c(F)c3F)cn2)c(OC)c1.Cl |  |  | 207.1 to 209.8 °C | 
